Legend:
[1] = system: short-form c-Maf gene expression; test: QPCR analysis of short-form c-Maf gene expression in TM70A trabecular meshwork cells; assay type: cell-based, Human; conditions: 10^−7 M dexamethasone, c-Maf/18S normalized ratio, n=3
From the text: Human trabecular meshwork (TM) cells were derived from donor eyes (Central Florida Lions Eye and Tissue Bank, Tampa, Fla.) and cultured as previously described (Steely, et al. (1992), Invest Ophthalmol Vis Sci 33(7): 2242-50; Wilson, et al. (1993), Curr Eye Res 12(9): 783-93; Clark, et al. (1994), Invest Ophthalmol Vis Sci 35(1): 281-94.; Dickerson, et al. (1998), Exp Eye Res 66(6): 731-8; Wang, et al. (2001), Mol Vis 7: 89-94). TM cells were derived from pools of four each of either normal or glaucoma cell lines. Total RNA was isolated from TM cells from each pool using TRIZOL® reagent according to the manufacturer's instructions (Invitrogen, Carlsbad, Calif.). […]
Measurement of short form c-Maf gene expression was performed by quantitative real-time RT-PCR (QPCR) using an ABI PRISM® 7700 Sequence Detection System (Applied Biosystems) essentially as described Shepard, et al. (2001) Invest Ophthalmol Vis Sci 42(13): 3173-81. […] The “Minor Groove Binding Non-Fluorescent Quencher” was bound to the 3′ end of the probe and is used to quench the fluorescence from 6FAM. […] Quantification of relative cDNA concentrations was done using the relative standard curve method as described in PE Biosystems User Bulletin #2, ABI PRISM® 7700 Sequence Detection System, 2001 (Applied BioSystems). […]

[2] = system: short-form c-Maf gene expression; test: QPCR analysis of short-form c-Maf gene expression in SGTM2697 glaucomatous trabecular meshwork cells; assay type: cell-based, Human
From the text: Human trabecular meshwork (TM) cells were derived from donor eyes (Central Florida Lions Eye and Tissue Bank, Tampa, Fla.) and cultured as previously described (Steely, et al. (1992), Invest Ophthalmol Vis Sci 33(7): 2242-50; Wilson, et al. (1993), Curr Eye Res 12(9): 783-93; Clark, et al. (1994), Invest Ophthalmol Vis Sci 35(1): 281-94.; Dickerson, et al. (1998), Exp Eye Res 66(6): 731-8; Wang, et al. (2001), Mol Vis 7: 89-94). TM cells were derived from pools of four each of either normal or glaucoma cell lines. Total RNA was isolated from TM cells from each pool using TRIZOL® reagent according to the manufacturer's instructions (Invitrogen, Carlsbad, Calif.).
First strand cDNA was generated from 1 μg of total RNA using random hexamers and TAQMAN® Reverse Transcription reagents according to the manufacturer's instructions (Applied Biosystems, Foster City, Calif.). The 100 μl reaction was subsequently diluted 20-fold to achieve an effective cDNA concentration of 0.5 ng/μl.
Measurement of short form c-Maf gene expression was performed by quantitative real-time RT-PCR (QPCR) using an ABI PRISM® 7700 Sequence Detection System (Applied Biosystems) essentially as described Shepard, et al. (2001) Invest Ophthalmol Vis Sci 42(13): 3173-81. Primers for short form-specific c-Maf amplification (Genbank accession #AF055376) were designed using PRIMER EXPRESS® software (Applied Biosystems). Forward and reverse primer sequences were […], SEQ ID NO:1, (nucleotides 3773-3799) and […], SEQ ID NO:2, (nucleotides 3823-3847), and the minor groove binding probe sequence was CTGCAAGCATATAATACA, SEQ ID NO:3, (nucleotides 3801-3818). 6FAM was bound to the 5′ end of the minor groove binding probe and refers to the type of fluorophore attached to the TAQMAN® probe. Other choices for the fluorophore are the JOE™ Fluorophore (Applied Biosystems) or VIC™ fluorophore (Applied Biosystems). The “Minor Groove Binding Non-Fluorescent Quencher” was bound to the 3′ end of the probe and is used to quench the fluorescence from 6FAM. […] Quantification of relative cDNA concentrations was done using the relative standard curve method as described in PE Biosystems User Bulletin #2, ABI PRISM® 7700 Sequence Detection System, 2001 (Applied BioSystems). […]
Short form c-Maf gene expression was analyzed using the Affymetrix U133A GENECHIP® analysis described in Example 2 of a pool of glaucomatous trabecular meshwork cells designated SGTM2697. […]
The effect of small molecule inhibition on short-form c-Maf gene expression was analyzed by QPCR analysis as described in Example 2 in glaucomatous trabecular meshwork (Passage 6) cells designated SGTM2697. […]

## C[C@@H]1C[C@H]2[C@@H]3CCC4=CC(=O)C=C[C@]4(C)[C@@]3(F)[C@@H](O)C[C@]2(C)[C@@]1(O)C(=O)CO [dexamethasone]
[1]; 1 day
  short form c-Maf upregulated compared to control, day one: 2.1 fold
[1]; 14 days
  short form c-Maf upregulated compared to control, day 14: 3.2 fold

## CC(C)[C@H](CO)Nc1nc(Nc2cccc(Cl)c2)c2ncn(C(C)C)c2n1 [purvalanol A, 2-(1R-Isopropyl-2-hydroxyethylamino)-6-(3-chloroanilino)-9-isopropylpurine]
[2]; SGTM2697 (Passage 6) cells, co-treatment with 5 ng/ml TGFβ2, 16 hours, n=6
  effect on TGFβ2-induced c-Maf expression: completely abolished
[2]; SGTM2697 (Passage 6) cells, without TGFβ2, 16 hours, n=6
  basal c-Maf levels downregulated: 2.6 fold

B1: TGFβ2: transforming growth factor beta 2, used for induction of gene expression (protein, UniProt P61812 303-414, looked up)
Transforming growth factor …: ALDAAYCFRNVQDNCCLRPLYIDFKRDLGWKWIHEPKGYNANFCAGACPYLWSSDTQHSRVLSLYNTINPEASASPCCVSQDLEPLTILYYIGKTPKIEQLSNMIVKSCKCS
[2]; SGTM2697 (Passage 6) cells, 5 ng/ml TGFβ2, 16 hours, n=6
  short-form c-Maf upregulated by TGFβ2: 17 fold
[2]; pooled SGTM2697 cells, 5 ng/ml TGFβ2, 16 hours, c-Maf/18S normalized ratio, n=3
  short form c-Maf upregulated compared to control: 16 fold

Source: patent publication US20050159432A1, “Short form c-Maf transcription factor antagonists for treatment of glaucoma” (Alcon, Inc., priority 2003, published 2005)
